The numbers were not newly measured in patent US20140056804A1, “PHARMACEUTICAL COMPOUND WHICH INCLUDES CLINOPTILOLITE” (priority 2008, published 2014), which cites them from elsewhere.

For this data set the following is noted: NSAIDs such as naproxen.

SMILES strings stand for the structures.

Take `COc1ccc2cc([C@H](C)C(=O)O)ccc2c1` [naproxen]: the “patients with non-symptomatic mucosal breaks” value was approximately 80%.
